Data from patent US9459250B2, “Use of T1R3 venus flytrap region polypeptide to screen for taste modulators” (SENOMYX, INC., priority 2003, dated 2016).

Columns and labels:
[1] = target: T1, T1R1/T1R3 (Homo sapiens (Human), UniProt Q7RTX0+Q7RTX1); experiment: Umami enhancement assay: MSG dose response with and without compound; assay type: cell-based; settings: for Umami EC50 ratio: Table 5, compound concentration not given
Description: In enhancement assay experiments, a MSG dose response was run and a second MSG dose response was run with a certain amount of candidate compound at every MSG concentrations at the same time. Then, the EC50 ratio is calculated based on the following definitions: EC50 Ratio=EC50(MSG)/EC50(MSG+[Compound])
wherein “[compound]” refers to the concentration of compound used to elicit (or enhance or potentiate) the MSG dose response. Those concentrations can vary from a pM to an mM, more preferred, from a low nM to μM.
(§1) HEK-Gα15 cells were engineered to inducibly express T1R1/T1R3 using the GeneSwitch system (Invitrogen). pGene-derived zeocin-resistant expression vectors for human T1R1 and T1R3 (plasmid SXV603 for T1R1 and SXV611 for T1R3) and a puromycin-resistant pSwitch-derived vector that carries the GeneSwitch protein (plasmid SXV628) were linearized and cotransfected into the HEK-Gα15 cell line. Zeocin-resistant and puromycin-resistant colonies were selected, expanded, induced with variable amounts of mifepristone, and tested by calcium imaging for responses to umami taste stimuli. […] After replacement with 50 μl PBS, stimulation was performed at room temperature by the addition of 50 μl PBS supplemented with different stimuli. The maximal fluorescence from four independent determinations were averaged, corrected for background fluorescence measured prior to compound addition, and normalized to the response to 0.002 mM ionomycin (CALBIOCHEM).

[2] = target: T1, T1R1/T1R3; experiment: Umami FLIPR assay, HEK-Gα15 clone I-17 inducibly expressing T1R1/T1R3; assay type: cell-based; settings: for EC50: Table 1 Umami Amides
Description: A dose-dependent response curve was determined for a compound, and the compound concentration corresponding to 50% of the maximal response was derived from the curve, in one example.
Regarding umami tastants and enhancers, scores of their activities can be given as percentage of the maximum MSG intensity (%). In compound dose response, an EC50 can be calculated to reflect the potency of the compound as umami agonist.
as §1

T1 sequence (Q7RTX1 21-841): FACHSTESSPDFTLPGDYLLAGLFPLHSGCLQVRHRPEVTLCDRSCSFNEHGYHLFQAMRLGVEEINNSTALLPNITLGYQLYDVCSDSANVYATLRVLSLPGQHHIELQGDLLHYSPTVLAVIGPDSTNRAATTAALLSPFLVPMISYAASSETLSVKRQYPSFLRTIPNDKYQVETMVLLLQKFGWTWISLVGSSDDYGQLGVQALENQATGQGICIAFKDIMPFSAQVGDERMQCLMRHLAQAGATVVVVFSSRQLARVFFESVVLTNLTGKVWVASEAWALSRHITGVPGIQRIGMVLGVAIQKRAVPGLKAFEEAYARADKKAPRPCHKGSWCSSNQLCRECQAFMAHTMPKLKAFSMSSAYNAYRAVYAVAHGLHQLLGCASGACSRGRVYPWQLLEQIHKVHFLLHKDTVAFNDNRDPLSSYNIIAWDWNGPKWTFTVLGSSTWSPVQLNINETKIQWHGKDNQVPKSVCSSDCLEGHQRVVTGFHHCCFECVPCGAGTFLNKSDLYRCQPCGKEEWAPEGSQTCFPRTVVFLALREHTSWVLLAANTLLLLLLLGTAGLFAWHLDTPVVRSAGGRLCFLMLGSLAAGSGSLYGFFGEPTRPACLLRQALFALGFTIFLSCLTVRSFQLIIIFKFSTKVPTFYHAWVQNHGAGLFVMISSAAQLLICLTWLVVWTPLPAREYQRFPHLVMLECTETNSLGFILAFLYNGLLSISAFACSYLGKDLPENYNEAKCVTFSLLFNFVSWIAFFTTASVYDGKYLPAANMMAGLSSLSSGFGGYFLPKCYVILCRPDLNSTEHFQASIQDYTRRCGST
T1 sequence (Q7RTX0 21-852 C757R): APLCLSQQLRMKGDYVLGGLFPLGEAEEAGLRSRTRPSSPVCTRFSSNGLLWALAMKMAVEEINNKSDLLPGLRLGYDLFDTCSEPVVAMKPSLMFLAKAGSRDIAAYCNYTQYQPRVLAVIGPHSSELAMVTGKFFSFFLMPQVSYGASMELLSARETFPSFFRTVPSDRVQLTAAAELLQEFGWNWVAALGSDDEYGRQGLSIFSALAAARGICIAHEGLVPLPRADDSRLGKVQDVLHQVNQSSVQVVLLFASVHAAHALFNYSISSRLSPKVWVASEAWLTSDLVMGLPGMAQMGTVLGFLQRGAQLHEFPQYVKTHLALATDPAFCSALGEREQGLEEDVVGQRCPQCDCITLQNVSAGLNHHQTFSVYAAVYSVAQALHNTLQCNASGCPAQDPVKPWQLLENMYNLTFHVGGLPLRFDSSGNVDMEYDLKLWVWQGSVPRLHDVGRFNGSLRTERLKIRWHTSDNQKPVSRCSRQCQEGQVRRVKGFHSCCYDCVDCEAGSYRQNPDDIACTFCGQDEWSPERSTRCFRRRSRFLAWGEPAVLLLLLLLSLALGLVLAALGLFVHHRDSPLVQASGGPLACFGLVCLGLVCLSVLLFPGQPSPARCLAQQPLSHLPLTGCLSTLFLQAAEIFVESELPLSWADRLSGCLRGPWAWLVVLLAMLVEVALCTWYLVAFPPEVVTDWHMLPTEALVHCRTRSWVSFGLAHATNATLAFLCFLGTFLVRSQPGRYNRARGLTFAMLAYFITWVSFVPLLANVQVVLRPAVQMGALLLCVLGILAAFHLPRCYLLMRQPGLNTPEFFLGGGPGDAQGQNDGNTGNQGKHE

CCCC(CCC)NC(=O)c1ccc(OC)cc1O [Compound A101]
Ec50 ratio (vs. MSG) ([1]; Table 1, compound @ 1 uM): 7.62

Cc1cc(C(=O)NC2CCCc3ccccc32)ccc1O (centres unmarked) [Compound A102]
Ec50 ratio (vs. MSG) ([1]; Table 1, compound @ 1 uM): 9.49

COC(=O)[C@H]1CCCC[C@H]1NC(=O)c1ccc(OC)c(Cl)c1 [Compound A103]
EC50 [2]: 1360 nM

COc1ccc(CNC(O)c2ccccc2-c2ccccc2)c(OC)c1 (centres unmarked) [Compound A104]
EC50 [2]: 1370 nM

C=Cc1ccc(C(=O)N[C@H]2CCCc3ccccc32)cc1 [Compound A105]
Ec50 ratio (vs. MSG) ([1]; Table 1, compound @ 1 uM): 2.79

COc1ccc(C(=O)NC2CCc3ccccc32)cc1Cl (centres unmarked) [Compound A106]
Ec50 ratio (vs. MSG) ([1]; Table 1, compound @ 0.3 uM): 4.01

CCCC(CCC)NC(=O)Nc1ccccc1Cl [Compound C1, 1-(2-chlorophenyl)-3-(heptan-4-yl)urea]
Ec50 ratio (vs. MSG) ([1]; Table 3, Con. 1 uM): 4.95

CCC(NC(=O)Nc1ccc(Cl)cc1Cl)c1ccccc1 (centres unmarked) [Compound C2, 1-(2,4-dichlorophenyl)-3-(1-phenylpropyl)urea]
Ec50 ratio (vs. MSG) ([1]; Table 3, Con. 1 uM): 4.52

CC1CCCCC1NC(=O)Nc1ccccc1Cl (centres unmarked) [Compound C3, 1-(2-chlorophenyl)-3-(2-methylcyclohexyl)urea]
Ec50 ratio (vs. MSG) ([1]; Table 3, Con. 3 uM): 3.24

CCCC(CCC)NC(=O)Nc1ccccc1F [Compound C4, 1-(2-fluorophenyl)-3-(heptan-4-yl)urea]
Ec50 ratio (vs. MSG) ([1]; Table 3, Con. 3 uM): 12.15

CC(NC(=O)Nc1ccccc1Cl)C1CCCCC1 (centres unmarked) [Compound C5, 1-(2-chlorophenyl)-3-(1-cyclohexylethyl)urea]
Ec50 ratio (vs. MSG) ([1]; Table 3, Con. 1 uM): 9.08

O=C(Nc1ccccc1Cl)NC1CCCc2ccccc21 (centres unmarked) [Compound C7, 1-(2-chlorophenyl)-3-(1,2,3,4-tetrahydronaphthalen-1-yl)urea]
Ec50 ratio (vs. MSG) ([1]; Table 3, Con. 1 uM): 3.68

COc1ccc(NC(=O)NC2CCCCC2C)c(OC)c1 (centres unmarked) [Compound C8, 1-(2,4-dimethoxyphenyl)-3-(2-methylcyclohexyl)urea]
Ec50 ratio (vs. MSG) ([1]; Table 3, Con. 0.3 uM): 2.62

CCOc1ccc(NC(=O)NC2CCCCC2C)cc1 (centres unmarked) [Compound C10, 1-(4-ethoxyphenyl)-3-(2-methylcyclohexyl)urea]
Ec50 ratio (vs. MSG) ([1]; Table 3, Con. 0.3 uM): 2.1

O=C(Nc1ccccc1F)NC1CCCc2ccccc21 (centres unmarked) [Compound C11, 1-(2-fluorophenyl)-3-(1,2,3,4-tetrahydronaphthalen-1-yl)urea]
Ec50 ratio (vs. MSG) ([1]; Table 3, Con. 1 uM): 4.49

CCC(CC)NC(=O)Nc1ccc(OC)cc1OC [Compound C13, 1-(2,4-dimethoxyphenyl)-3-(pentan-3-yl)urea]
Ec50 ratio (vs. MSG) ([1]; Table 3, Con. 1 uM): 11.87

COc1ccc(/C=C/C(=O)NC(C(C)C)C(C)C)cc1 [Compound D1, (E)-N-(2,4-dimethylpentan-3-yl)-3-(4-methoxyphenyl)acrylamide]
Ec50 ratio (vs. MSG) ([1]; Table 4, compound @ 1 uM): 3.46

CC(CCc1ccccc1)NC(=O)/C=C/c1cccs1 (centres unmarked) [Compound D4, N-(1-Methyl-3-phenyl-propyl)-3-thiophen-2-yl-acrylamide]
Ec50 ratio (vs. MSG) ([1]; Table 4, compound @ 1 uM): 9.73

CCCC(CCC)NC(=O)/C=C/c1ccc(OC)cc1 [Compound D5, (E)-N-(heptan-4-yl)-3-(4-methoxyphenyl)acrylamide]
Ec50 ratio (vs. MSG) ([1]; Table 4, compound @ 0.3 uM): 3.48

CCCC(CCC)NC(=O)/C=C/c1cccs1 [Compound D6, N-(1-Propyl-butyl)-3-thiophen-2-yl-acrylamide]
Ec50 ratio (vs. MSG) ([1]; Table 4, compound @ 1 uM): 6.3

CCC(CC)NC(=O)/C=C/c1ccc(OC)cc1 [Compound D7, (E)-3-(4-methoxyphenyl)-N-(pentan-3-yl)acrylamide]
Ec50 ratio (vs. MSG) ([1]; Table 4, compound @ 1 uM): 9.62

CCOc1ccc(/C=C/C(=O)NC(C)CC)cc1 (centres unmarked) [Compound D13, (E)-N-sec-butyl-3-(4-ethoxyphenyl)acrylamide]
Ec50 ratio (vs. MSG) ([1]; Table 4, compound @ 0.3 uM): 2.7

CCC(COC)NC(=O)/C=C/c1ccc(OC)cc1 (centres unmarked) [Compound D14, (E)-N-(1-methoxybutan-2-yl)-3-(4-methoxyphenyl)acrylamide]
Ec50 ratio (vs. MSG) ([1]; Table 4, compound @ 1 uM): 8.48

CCCC(CCC)NC(=O)/C=C/c1ccsc1 [Compound D15, (E)-N-(heptan-4-yl)-3-(thiophen-3-yl)acrylamide]
Ec50 ratio (vs. MSG) ([1]; Table 4, compound @ 0.3 uM): 2.22

COc1ccc(/C=C/C(=O)NC(C)CCc2ccccc2)cc1OC (centres unmarked) [Compound D16, (E)-3-(3,4-dimethoxyphenyl)-N-(4-phenylbutan-2-yl)acrylamide]
Ec50 ratio (vs. MSG) ([1]; Table 4, compound @ 1 uM): 3.13

O=C(NC1CCCc2ccccc21)c1cccc(Cl)c1O (centres unmarked) [Compound E7, 3-chloro-2-hydroxy-N(-1,2,3,4-tetrahydronaphthalen-1-yl)benzamide]
Umami EC50 ratio [1]: 4.04

COc1cc(C(=O)NC2CCCCC2C)cc(Cl)n1 (centres unmarked) [Compound E40, 2-chloro-6-methoxy-N-(2-methylcyclohexyl)isonicotinamide]
Umami EC50 ratio [1]: 9.77

CC1CCCCC1NC(=O)c1ccnc(Cl)c1 (centres unmarked) [Compound E56, 2-chloro-N-(2-methylcyclohexyl)isonicotinamide]
Umami EC50 ratio [1]: 2.08

CC1CCCCC1NC(=O)c1cccc(C(F)(F)F)c1 (centres unmarked) [Compound E59, N-(2-methylcyclohexyl)-3-(trifluoromethyl)benzamide]
Umami EC50 ratio [1]: 2.07

CC1CCCCC1NC(=O)c1ccc(F)c(F)c1 (centres unmarked) [Compound E81, 3,4-difluoro-N-(2-methylcyclohexyl)benzamide]
Umami EC50 ratio [1]: 6.98

COc1c(Cl)ccc(Cl)c1C(=O)Nc1ccccc1F [Compound E84, 3,6-dichloro-N-(2-fluorophenyl)-methoxybenzamide]
Umami EC50 ratio [1]: 16.51

N[C@@H](CC(=O)O)C(=O)O [L-aspartate, reference compound]
activation of T1R1/T1R3 receptor by L-amino acids ([2]; clone I-17, with and without IMP): significantly activated
